{"source": "patent US20230149398A1", "about": "“TOPICAL PHARMACEUTICAL COMPOSITIONS COMPRISING IMIDAZO[1,2-B]PYRIDAZINE COMPOUNDS” (BenevolentAI Bio Limited, priority 2020, published 2023)", "tested_on": "RHE cultures (ZenSkin)", "assay": "RHE irritancy test (MTT viability of RHE cultures)", "assay_type": "cell-based", "conditions": "30 μL applied for 1 hour, MTT after 42 hours, relative to negative control (water), n=3", "experimental": "RHE cultures (ZenSkin®) (surface area=0.33 cm^2) were equilibrated overnight in a humidified incubator at 37° C. and 5% CO2. The next day RHE were removed from the incubator and inspected for residual liquid on the apical surface. Excess moisture was removed with sterile cotton swab and 30 μL of a topical pharmaceutical composition was applied to triplicate cultures (n=3). Sterile water served as a negative control and 1% Triton X-100 served as positive control. Once treated, RHE cultures were returned to the incubator for 1 hour and then gently washed to remove test substance. The washed inserts were then transferred to new 12 well plates prefilled with fresh 0.5 mL media. […]\nAfter 42-hour incubation, the tissue cultures were transferred to a new plate containing fresh MTT substrate in tissue media and placed in the incubator at 37° C. and 5% CO2 for 2 hours. […] Optical density was measured at 570 nm without using a reference filter. […]\nPercent cell viability was calculated as follows: 100×[OD(sample)/OD(neg control)]. […] The test formulations were classified as irritant or non-irritant based on EU and GHS classification, according to which an irritant (R38/Category 2) is determined if the mean relative tissue viability of tissues exposed to test material is reduced below 50% of the negative control."}
{"substance": "triton X-100", "values": [{"measurement": "Mean percent viability", "value": "< 20", "unit": "%"}]}
